Data on one compound can be found in US20260207626A1, “SYNTHETIC TRITERPENOIDS AND COMPOSITIONS THEREOF IN WEIGHT MANAGEMENT, SKELETAL MUSCLE FUNCTION, AND APPETITE SUPPRESSION” (The Board of Regents of the University of Texas System, priority 2022, published 2026).

SMILES strings stand for the structures. “Also recorded” adds a separate entry of the source.

One data set relates to TNF-α. Briefly: Quantitative RT-PCR of LPS-induced TNF-α mRNA in L6-GLUT4myc myotubes. The class given is cell-based, rat. Conditions: 500 nM CDDO-EA 1 hr then 100 ng/ml LPS 1 hr. As for the experimental part:
(§1) Quantitative RT-PCR: L6-GLUT4myc myoblasts (4×10^4 cell/ml, 2 ml/well) were seeded on a 6-well plate and differentiated into myo-tubes with differentiation medium for 7 days. Myotubes were pre-treated with CDDO-EA 500 nM for 1 h followed by LPS 100 ng/ml (E. coli O111: B4, Sigma Aldrich) treatment for 1 h. RNA was isolated from treated myotubes using TRIzol reagent (Ambion) according to the manufacturer's instructions. Validated RT-PCR primers specific for rat TNF-α (Assay ID: Rn99999017_m1) and rat MCP-1 (Assay ID: Rn00580555_m1), or rat GAPDH (Assay ID: Rn99999916_s1) were used to quantify mRNA levels using TaqMan RNA-to-CT 1-Step Kit (Thermo Fisher Scientific), Real-time PCR was carried out using an AB7900HT Fast Real-Time PCR System (Applied Biosystems), and MCP-1 and TNF-α levels were calculated using the ΔΔCT method according to the manufacturer's instructions.

The next data set relates to MCP-1. Briefly: Quantitative RT-PCR of LPS-induced MCP-1 mRNA in L6-GLUT4myc myotubes. The class given is cell-based, rat. Conditions: 500 nM CDDO-EA 1 hr then 100 ng/ml LPS 1 hr. As for the experimental part:
as §1

The subject of the next data set is NF-κB. Briefly: NF-κB luciferase reporter assay in L6-GLUT4myc myotubes. The data set is classed as cell-based, rat. Conditions: 500 nM CDDO-EA 1 hr then 100 ng/ml LPS 6 hours. The procedure:
To determine the effects of CDDO-EA on LPS-induced NF-κB transcriptional activity in L6-GLUT4myc myotubes, a luciferase reporter under the control of a promoter containing NF-κB transcription binding sites was used.
Luciferase assay: L6-GLUT4myc myoblasts were transfected with 2 μg of phosphorylated NF-κB-MetLuc2-Reporter plasmid as described previously. After transfection, cells were plated onto a 24-well dish (1.5×10^5 cells/well) and pre-treated with CDDO-EA for 1 h. Myotubes were then stimulated with LPS 100 ng/ml (E. coli 0111: B4, Sigma Aldrich) for 6 h, and luciferase activity was measured using the Ready-To-Glow™ NF-κB Secreted Luciferase Reporter System as described.
Background: Reporter assays use an easily measured gene product as a stand-in for the process of interest.

For another data set, the system named is GLUT4. The data set is described as follows: GLUT4myc translocation by immunofluorescence in L6-GLUT4myc myotubes. The data set is classed as cell-based, rat. The procedure:
Immunofluorescence and confocal microscopy were employed to visualize the localization of c-myc epitope-tagged GLUT4 in L6-GLUT4myc myotubes treated with CDDO-EA for 1 h. L6-GLUT4myc myotubes were also treated with insulin alone for 15 min as a positive control.
To examine the properties of CDDO-EA in regulating glucose metabolism in the skeletal muscle, the present study examined whether CDDO-EA induces translocation of GLUT4 to the cell surface (FIG. 16A). Immunofluorescence and confocal microscopy were used to visualize the localization of c-myc epitope-tagged GLUT4 in L6-GLUT4myc cells.
Immunofluorescence microscopy: L6-GLUT4myc myoblasts (4×10^4 cells/ml, 0.2 ml/well) were plated onto Nunc Lab-TekII 8-chamber slides (Thermo Fisher Scientific) and differentiated for 7 days. Myotubes were pre-treated with CDDO-EA 500 nM for 1 h followed by LPS 100 ng/ml (E. coli O111: B4, Sigma Aldrich) treatment for 1 h. After treatment, myotubes were fixed, permeabilized, and stained with anti-NF-κB p65 primary antibody (cat #sc-372, 1:100, Santa Cruz Biotechnology) and a goat anti-rabbit secondary antibody conjugated with Alexa Fluor® 488 (cat #A32731, 1:500, Invitrogen) as previously described. For GLUT4myc cell membrane staining, myotubes were pre-treated with CDDO-EA 500 nM for 1 h followed by LPS 100 ng/ml (E. coli 0111: B4, Sigma Aldrich) treatment for 1 h. Insulin 100 nM (cat #19278, Sigma Aldrich) treatment was for 15 min. After CDDO-EA, LPS, and insulin treatment, myotubes were fixed without permeabilization and stained with anti-c-myc primary antibody (cat #C3956, 1:100, Sigma Aldrich) and a goat anti-rabbit secondary antibody conjugated with Alexa Fluor® 488 (cat #A32731, 1:500, Invitrogen) as previously described.

Another data set deals with N171-82Q mice. Conditions: cited from earlier work.
The nature of data set [1]: Food intake in mice fed HFD with or without CDDO-EA, LFD or HFD pair-fed. The data set is classed as in vivo, C57BL/6J mice. Conditions: HFD + CDDO-EA (0.04%) vs ad libitum HFD. From the text:
C57BL/6J mice were fed a HFD with or without incorporation of CDDO-EA (diet containing 0.04% CDDO-EA) or LFD or HFD pair-fed for 6 weeks (n=5). Food intake data points in week 1 are not recorded when mice were in the Prometheion. Data are represented as mean±SEM (Two-way Repeated Measures ANOVA). *p<0.05; **p<0.01 vs. HFD pair-fed; ? p<0.01 vs. HFD+CDDO-EA; ##p<0.01 vs. LFD ad lib.
C57BL/6J mice (6-8 weeks old, male, strain #000664, The Jackson Laboratory) were divided into four (4) groups (i)-(iv)): (i) ad libitum Low fat caloric content (LFD-10% of total calories from fat caloric content, #TD.08806, Envigo), (ii) ad libitum HFD (60% of total calories from fat caloric content, #TD.06414, Envigo), (iii) HFD+CDDO-EA (diet containing 0.04% CDDO-EA), and (iv) HFD pair-fed to food intake of mice fed HFD+CDDO-EA. The study was for 6 weeks (42 days) (performed at Vanderbilt Metabolic Mouse Phenotyping Center (VMMPC)). Mice were singly housed in a Promethion Metabolic Analyzer and were monitored continuously for 7 days to assess feeding and EE.

The subject of the next data set is p65 NF-κB. The data set is described as follows: NF-κB p65 nuclear translocation (immunofluorescence and subcellular fractionation) in L6-GLUT4myc myotubes. The class given is cell-based, rat. As for the experimental part: NF-κB is bound to IκB-α in the cytoplasm. Upon activation of the IKK/NF-κB/IκB pathway, IκB is degraded, freeing NF-κB to translocate into the nucleus and activate the transcription of pro-inflammatory mediators. To visualize the localization of NF-κB, immunofluorescence and confocal microscopy studies were performed in L6-GLUT4myc myo-tubes pre-treated with CDDO-EA for 1 h and then exposed to LPS for 1 h. The untreated muscle cells show a basal-level expression of p65 NF-κB in the nucleus (FIG. 14A).
For subcellular fractionation, differentiated L6-GLUT4myc myotubes were pre-treated with CDDO-EA 500 nM for 1 h follow by LPS 100 ng/ml (E. coli O111: B4, Sigma Aldrich) treatment for 1 h, and the nuclear and cytosolic fractions were isolated using the Nuclear Extraction Kit (Panomics) according to the manufacturer's instructions. The extracted fractions were then analyzed by Western blotting as described.
Immunofluorescence microscopy: L6-GLUT4myc myoblasts (4×10^4 cells/ml, 0.2 ml/well) were plated onto Nunc Lab-TekII 8-chamber slides (Thermo Fisher Scientific) and differentiated for 7 days. Myotubes were pre-treated with CDDO-EA 500 nM for 1 h followed by LPS 100 ng/ml (E. coli O111: B4, Sigma Aldrich) treatment for 1 h. […]

For the compound `CCNC(=O)[C@]12CCC(C)(C)C[C@H]1C1C(=O)C=C3[C@@]4(C)C=C(C#N)C(=O)C(C)(C)[C@@H]4CC[C@@]3(C)[C@]1(C)CC2` (stereo partly drawn) [CDDO-EA, (4aS,6aR,6bS,8aR,12aS,14bS)-11-cyano-N-ethyl-2,2,6a,6b,9,9,12a-heptamethyl-10,14-dioxo-1,3,4,5,6,6a,6b, 7,8,8a,9,10,12a, 14,14a, 14b-hexadecahydropicene-4a (2H)-carboxamide], in the data set with TNF-α, the “LPS-induced TNF-α mRNA expression” value was “lowered LPS-induced mRNA levels of TNF-α and MCP-1; also recorded: blocked the mRNA expression of LPS-induced TNF-α and MCP-1; also recorded: reduced LPS-induced TNF-α and MCP-1 gene expression levels; also recorded: inhibits LPS-inducted TNF-α and MCP-1 gene expression”. Further, the “LPS-induced MCP-1 mRNA expression” value in the data set on MCP-1 was “lowered LPS-induced mRNA levels of TNF-α and MCP-1; also recorded: blocked the mRNA expression of LPS-induced TNF-α and MCP-1; also recorded: reduced LPS-induced TNF-α and MCP-1 gene expression levels; also recorded: inhibits LPS-inducted TNF-α and MCP-1 gene expression”. Also, the “LPS-induced NF-κB transcriptional (luciferase) activity” value in the data set on NF-κB is recorded as “prevented the promoter activity of NF-κB; also recorded: significantly inhibited the LPS-induced NF-κB activity; also recorded: blocks NF-κB transcriptional activity”. Further, the “CDDO-EA-stimulated GLUT4myc translocation in presence of LPS” value in the data set with GLUT4 (500 nM CDDO-EA 1 h then 100 ng/ml LPS 1 h) was “did not inhibit CDDO-EA-stimulated GLUT4myc translocation; also recorded: did not prevent CDDO-EA-stimulated GLUT4myc translocation to the cell surface”. The “GLUT4myc translocation to the cell surface” value in the data set on GLUT4 (CDDO-EA 500 nM 1 h, insulin 100 nM 15 min) was “induced GLUT4myc translocation to the cell surface; also recorded: activates GLUT4 translocation to cell membrane and p38 phosphorylation”. Besides, in the data set on N171-82Q mice (N171-82Q mice), the “muscle strength and balance, survival” value is “improved muscle strength and balance and increased survival”. For the same compound, in the data set on N171-82Q mice (Stack et al. (2010)), the “accumulation in the skeletal muscle” value is “accumulated in the skeletal muscle” and the “oxidative stress in skeletal muscle” value is “oxidative stress in skeletal muscle was reduced”. The food intake entry in data set [1] is “prevented an increase in food intake; also recorded: decreases food intake”. Besides, in the data set on p65 NF-κB (500 nM CDDO-EA 1 hr then 100 ng/ml LPS 1 hr), the “LPS-induced p65 NF-κB nuclear translocation” value was “reduces LPS-induced p65 NF-κB nuclear staining; also recorded: decreased both cytoplasmic and nuclear localization of p65 NF-κB; also recorded: prevented NF-κB translocation to the nucleus”. In addition, the NF-κB activation result in the data set on p65 NF-κB (CDDO-EA alone, no LPS) was “had no effect on NF-κB activation”.
